In article PMC9416487, “Comprehensive Evaluation of the Quality of Tripterygium Glycosides Tablets Based on Multi-Component Quantification Combined with an In Vitro Biological Assay” (Molecules, 2022):

Tests used:
[1] = system: NO production in LPS-induced RAW 264.7 cells; test: Inhibitory effect on NO production in LPS-induced RAW 264.7 cells (Griess reagent); format: cell-based; details: for NO Inhibitory Effect IC50 / IC50: investigated compounds, LPS (1 µg/mL)-induced RAW 264.7 cells, 24 h; for IC50: Mus musculus, RAW264.7
Method: The culture medium was replaced with DMEM medium containing various concentrations of TGT or target compound, subsequently treated with LPS (1 µg/mL), and then incubated for 24 h. After 50 µL of cultured medium was transferred to a new 96-well plate, 50 µL of Griess reagent was added to each well. The absorbance at 540 nm was determined using a microplate reader (PerkinElmer, Waltham, MA, USA). The concentration of NO in the culture supernatants was calculated by using a standard curve of nitrite, a major stable product of NO, which was generated according to the application instructions for the Griess reagent.

RAW 264.7 cells = test: Cytotoxicity against RAW 264.7 cells (CCK-8 method); details: for Cytotoxicity TC50 / Therapeutic Index (TI, = TC50/IC50): investigated compounds; for Cytotoxicity TC50: 24 h, CCK-8
Method: Cells were cultured at 37 °C in a humidified air incubator with 5% CO2 in Dulbecco’s modified Eagle’s medium (DMEM; Gibco, Grand Island, NY, USA) supplemented with 10% fetal bovine serum (FBS; Gibco, USA), 100 units/mL penicillin and 100 µg/mL streptomycin (Gibco, USA).
RAW 264.7 cells (5.0 × 10^4 cells/well) were seeded into a 96-well plate. After overnight incubation, various concentrations of TGT or target compound were applied to the cells, which were then incubated for 24 h. The same volume of DMSO was added to the compound-untreated group to account for any effects of DMSO on cell viability. Then, the culture medium was removed, 100 μL DMEM medium plus 10 μL CCK-8 reagent (MCE, Suzhou, China) was added, and the cells were incubated for another 2 h at 37 °C in a 5% CO2 incubator. Absorbance at 450 nm was read using a microplate reader, and cell viability was calculated as the percentage of absorbance of various concentrations versus the control group.

[2] = parameters: method as in PMID 29787994; details: reported in the literature ref [20]; cited from earlier work

SMILES	Cytotoxicity TC50 (RAW 264.7 cells)	IC50 [1] [µM]	further results
CC(=O)OC[C@]12[C@H](OC(C)=O)[C@H](OC(C)=O)[C@@H]3[C@@H](OC(C)=O)[C@@]14O[C@@]3(C)COC(=O)c1cccnc1CCC(C)C(=O)O[C@@H]([C@H](OC(=O)c1ccccc1)[C@@H]2OC(C)=O)[C@]4(C)O (stereo partly shown) [wilforine]	w (had weak NO inhibitory effect or cytotoxicity with an NO production rate less than 50% or the cell viability more than 50% at a concentration of 50 μM)	–	NO Inhibitory Effect IC50 [1]: w (had weak NO inhibitory effect or cytotoxicity with an NO production rate less than 50% or the cell viability more than 50% at a concentration of 50 μM)
CC(C)[C@]12O[C@H]1[C@@H]1O[C@]13[C@]1(O[C@H]1C[C@H]1C4=C(CC[C@@]13C)C(=O)OC4)[C@@H]2O [triptolide]	0.071 µM	0.066	Therapeutic Index (TI, = TC50/IC50) (RAW 264.7 cells): 1.08
CC(=O)OCC12C(OC(C)=O)C(OC(C)=O)C3C(OC(C)=O)C14OC3(C)COC(=O)c1cccnc1CCC(C)(OC(=O)c1ccccc1)C(=O)OC(C(OC(C)=O)C2OC(C)=O)C4(C)O (stereo not shown) [wilfornine A]	w (had weak NO inhibitory effect or cytotoxicity with an NO production rate less than 50% or the cell viability more than 50% at a concentration of 50 μM)	–	NO Inhibitory Effect IC50 [1]: w (had weak NO inhibitory effect or cytotoxicity with an NO production rate less than 50% or the cell viability more than 50% at a concentration of 50 μM)
CC(=O)OC[C@]12[C@H](OC(C)=O)[C@H](OC(C)=O)[C@@H]3[C@@H](OC(C)=O)[C@@]14O[C@@]3(C)COC(=O)c1cccnc1CCC(C)(O)C(=O)O[C@@H]([C@H](OC(=O)c1ccco1)[C@@H]2OC(C)=O)[C@]4(C)O (stereo partly shown) [wilfortrine]	nu (Had no NO inhibitory effect or cytotoxicity with an NO production rate less than 0 or cell viability more than 100% at a concentration of 50 μM)	> 50	–
CC1(C)[C@@H](O)CC[C@]2(C)[C@H]3CC=C4[C@@H]5C[C@@]6(C)C[C@H](OC6=O)[C@]5(C)CC[C@@]4(C)[C@]3(C)CC[C@@H]12 [wilforlide A]	nu (Had no NO inhibitory effect or cytotoxicity with an NO production rate less than 0 or cell viability more than 100% at a concentration of 50 μM)	> 50	NO inhibitory effect / anti-inflammatory activity, in words ([1]; LPS-induced RAW 264.7 cells, up to 50 μM): negligible anti-inflammatory activity; cytotoxicity / influence on cell viability, in words (RAW 264.7 cells; up to 50 μM): negligible; oral bioavailability [2]: extremely low
CC(=O)OC[C@]12[C@H](OC(C)=O)[C@H](OC(C)=O)[C@@H]3[C@@H](OC(C)=O)[C@@]14O[C@@]3(C)COC(=O)c1cccnc1CCC(C)C(=O)O[C@@H]([C@H](OC(=O)c1ccco1)[C@@H]2OC(C)=O)[C@]4(C)O (stereo partly shown) [wilforgine]	w (had weak NO inhibitory effect or cytotoxicity with an NO production rate less than 50% or the cell viability more than 50% at a concentration of 50 μM)	–	NO Inhibitory Effect IC50 [1]: w (had weak NO inhibitory effect or cytotoxicity with an NO production rate less than 50% or the cell viability more than 50% at a concentration of 50 μM)
C[C@@]1(C(=O)O)CC[C@]2(C)CC[C@]3(C)C4=CC(=O)c5c(cc(O)c(O)c5C=O)[C@]4(C)CC[C@@]3(C)[C@@H]2C1 [demethylzeylasteral]	27.59 µM	3.48	Therapeutic Index (TI, = TC50/IC50) (RAW 264.7 cells): 7.93
CC(C)c1ccc2c(c1O)CC[C@H]1C3=C(CC[C@]21C)C(=O)OC3 [triptophenolide]	–	43.1	–
CC1=C(O)C(=O)C=C2C1=CC=C1[C@@]2(C)CC[C@@]2(C)[C@@H]3C[C@](C)(C(=O)O)CC[C@]3(C)CC[C@]12C [celastrol]	1.72 µM	0.56	Therapeutic Index (TI, = TC50/IC50) (RAW 264.7 cells): 3.07
CC(=O)OCC12C(OC(C)=O)C(OC(C)=O)C3C(OC(C)=O)C14OC3(C)COC(=O)c1cnccc1C(C)C(C)C(=O)OC(C(OC(C)=O)C2OC(C)=O)C4(C)O (stereo not shown) [peritassine A]	nu (Had no NO inhibitory effect or cytotoxicity with an NO production rate less than 0 or cell viability more than 100% at a concentration of 50 μM)	> 50	–
CC(=O)OC[C@]12[C@H](OC(C)=O)[C@H](OC(C)=O)[C@@H]3[C@@H](OC(C)=O)[C@@]14O[C@@]3(C)COC(=O)c1cccnc1C(C)C(C)C(=O)O[C@@H]([C@H](OC(C)=O)[C@@H]2OC(C)=O)[C@]4(C)O (stereo partly shown) [euonymine]	nu (Had no NO inhibitory effect or cytotoxicity with an NO production rate less than 0 or cell viability more than 100% at a concentration of 50 μM)	> 50	–
C[C@@]1(O)C[C@@]23CC[C@H]4[C@@]5(CCC[C@]4(C)C(=O)OC5)[C@@H]2CC[C@H]1C3 [tripterifordin]	w ^b (had weak NO inhibitory effect or cytotoxicity with an NO production rate less than 50% or the cell viability more than 50% at a concentration of 50 μM)	> 50	–
CC(C)C1=CC(=O)C2=C(CC[C@H]3[C@@](C)(CO)C(=O)CC[C@]23C)C1=O [triptoquinone B]	0.11 µM	35.6	Therapeutic Index (TI, = TC50/IC50) (RAW 264.7 cells): 0.0031
CC(=O)OCC12C(OC(C)=O)C(OC(C)=O)C3C(O)C14OC3(C)COC(=O)c1cccnc1C(C)C(C)C(=O)OC(C(OC(C)=O)C2OC(C)=O)C4(C)O (stereo not shown) [neoeunymine]	nu (Had no NO inhibitory effect or cytotoxicity with an NO production rate less than 0 or cell viability more than 100% at a concentration of 50 μM)	> 50	–
